Test results taken from ChEMBL document CHEMBL5291721, “A preclinical secondary pharmacology resource illuminates target-adverse drug reaction associations of marketed drugs” (Nat Commun, 2023).

Key:
Androgen receptor = biological target: T1, Androgen receptor (Rattus norvegicus, UniProt P15207); format: functional
T1 sequence (P15207 whole entry): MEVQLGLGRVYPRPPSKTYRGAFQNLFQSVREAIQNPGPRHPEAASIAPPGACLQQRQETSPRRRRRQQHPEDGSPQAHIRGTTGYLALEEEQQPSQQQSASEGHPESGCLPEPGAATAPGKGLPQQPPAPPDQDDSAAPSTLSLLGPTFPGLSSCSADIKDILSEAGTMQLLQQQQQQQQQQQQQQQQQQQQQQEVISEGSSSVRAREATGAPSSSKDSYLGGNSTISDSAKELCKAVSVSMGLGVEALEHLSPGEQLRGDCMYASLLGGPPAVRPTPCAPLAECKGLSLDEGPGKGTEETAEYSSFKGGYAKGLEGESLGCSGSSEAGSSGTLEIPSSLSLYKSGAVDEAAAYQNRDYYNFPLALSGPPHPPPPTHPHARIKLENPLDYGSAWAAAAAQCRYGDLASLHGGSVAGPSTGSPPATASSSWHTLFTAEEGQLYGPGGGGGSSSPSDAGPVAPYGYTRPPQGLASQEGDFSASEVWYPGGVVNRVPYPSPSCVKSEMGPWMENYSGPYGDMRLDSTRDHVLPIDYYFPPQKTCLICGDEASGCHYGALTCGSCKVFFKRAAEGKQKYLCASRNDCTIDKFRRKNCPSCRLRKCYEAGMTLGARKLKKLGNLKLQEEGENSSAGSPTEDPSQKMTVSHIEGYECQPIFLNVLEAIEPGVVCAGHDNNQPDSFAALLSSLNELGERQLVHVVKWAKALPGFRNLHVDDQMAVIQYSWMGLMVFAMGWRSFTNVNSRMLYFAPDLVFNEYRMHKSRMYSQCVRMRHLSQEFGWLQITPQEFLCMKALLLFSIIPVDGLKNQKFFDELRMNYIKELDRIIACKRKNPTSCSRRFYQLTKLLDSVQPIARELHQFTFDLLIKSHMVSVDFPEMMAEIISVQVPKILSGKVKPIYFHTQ

B1 bradykinin receptor = biological target: T2, B1 bradykinin receptor (Homo sapiens, UniProt P46663)
T2 sequence (P46663 whole entry): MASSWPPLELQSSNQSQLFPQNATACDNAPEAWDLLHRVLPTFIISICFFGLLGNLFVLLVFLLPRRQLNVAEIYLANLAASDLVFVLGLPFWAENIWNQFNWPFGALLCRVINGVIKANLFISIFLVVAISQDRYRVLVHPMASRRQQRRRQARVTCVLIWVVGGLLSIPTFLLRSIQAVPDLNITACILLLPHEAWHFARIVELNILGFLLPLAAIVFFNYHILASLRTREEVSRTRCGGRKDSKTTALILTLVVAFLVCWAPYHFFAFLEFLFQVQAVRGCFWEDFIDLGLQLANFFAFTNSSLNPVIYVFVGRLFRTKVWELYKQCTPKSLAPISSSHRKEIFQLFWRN

[1] = biological target: Voltage-dependent N-type calcium channel subunit alpha-1B (Rattus norvegicus, UniProt Q02294); format: functional
Chain of Voltage-dependent N-type calcium channel subunit alpha-1B (Q02294 whole entry): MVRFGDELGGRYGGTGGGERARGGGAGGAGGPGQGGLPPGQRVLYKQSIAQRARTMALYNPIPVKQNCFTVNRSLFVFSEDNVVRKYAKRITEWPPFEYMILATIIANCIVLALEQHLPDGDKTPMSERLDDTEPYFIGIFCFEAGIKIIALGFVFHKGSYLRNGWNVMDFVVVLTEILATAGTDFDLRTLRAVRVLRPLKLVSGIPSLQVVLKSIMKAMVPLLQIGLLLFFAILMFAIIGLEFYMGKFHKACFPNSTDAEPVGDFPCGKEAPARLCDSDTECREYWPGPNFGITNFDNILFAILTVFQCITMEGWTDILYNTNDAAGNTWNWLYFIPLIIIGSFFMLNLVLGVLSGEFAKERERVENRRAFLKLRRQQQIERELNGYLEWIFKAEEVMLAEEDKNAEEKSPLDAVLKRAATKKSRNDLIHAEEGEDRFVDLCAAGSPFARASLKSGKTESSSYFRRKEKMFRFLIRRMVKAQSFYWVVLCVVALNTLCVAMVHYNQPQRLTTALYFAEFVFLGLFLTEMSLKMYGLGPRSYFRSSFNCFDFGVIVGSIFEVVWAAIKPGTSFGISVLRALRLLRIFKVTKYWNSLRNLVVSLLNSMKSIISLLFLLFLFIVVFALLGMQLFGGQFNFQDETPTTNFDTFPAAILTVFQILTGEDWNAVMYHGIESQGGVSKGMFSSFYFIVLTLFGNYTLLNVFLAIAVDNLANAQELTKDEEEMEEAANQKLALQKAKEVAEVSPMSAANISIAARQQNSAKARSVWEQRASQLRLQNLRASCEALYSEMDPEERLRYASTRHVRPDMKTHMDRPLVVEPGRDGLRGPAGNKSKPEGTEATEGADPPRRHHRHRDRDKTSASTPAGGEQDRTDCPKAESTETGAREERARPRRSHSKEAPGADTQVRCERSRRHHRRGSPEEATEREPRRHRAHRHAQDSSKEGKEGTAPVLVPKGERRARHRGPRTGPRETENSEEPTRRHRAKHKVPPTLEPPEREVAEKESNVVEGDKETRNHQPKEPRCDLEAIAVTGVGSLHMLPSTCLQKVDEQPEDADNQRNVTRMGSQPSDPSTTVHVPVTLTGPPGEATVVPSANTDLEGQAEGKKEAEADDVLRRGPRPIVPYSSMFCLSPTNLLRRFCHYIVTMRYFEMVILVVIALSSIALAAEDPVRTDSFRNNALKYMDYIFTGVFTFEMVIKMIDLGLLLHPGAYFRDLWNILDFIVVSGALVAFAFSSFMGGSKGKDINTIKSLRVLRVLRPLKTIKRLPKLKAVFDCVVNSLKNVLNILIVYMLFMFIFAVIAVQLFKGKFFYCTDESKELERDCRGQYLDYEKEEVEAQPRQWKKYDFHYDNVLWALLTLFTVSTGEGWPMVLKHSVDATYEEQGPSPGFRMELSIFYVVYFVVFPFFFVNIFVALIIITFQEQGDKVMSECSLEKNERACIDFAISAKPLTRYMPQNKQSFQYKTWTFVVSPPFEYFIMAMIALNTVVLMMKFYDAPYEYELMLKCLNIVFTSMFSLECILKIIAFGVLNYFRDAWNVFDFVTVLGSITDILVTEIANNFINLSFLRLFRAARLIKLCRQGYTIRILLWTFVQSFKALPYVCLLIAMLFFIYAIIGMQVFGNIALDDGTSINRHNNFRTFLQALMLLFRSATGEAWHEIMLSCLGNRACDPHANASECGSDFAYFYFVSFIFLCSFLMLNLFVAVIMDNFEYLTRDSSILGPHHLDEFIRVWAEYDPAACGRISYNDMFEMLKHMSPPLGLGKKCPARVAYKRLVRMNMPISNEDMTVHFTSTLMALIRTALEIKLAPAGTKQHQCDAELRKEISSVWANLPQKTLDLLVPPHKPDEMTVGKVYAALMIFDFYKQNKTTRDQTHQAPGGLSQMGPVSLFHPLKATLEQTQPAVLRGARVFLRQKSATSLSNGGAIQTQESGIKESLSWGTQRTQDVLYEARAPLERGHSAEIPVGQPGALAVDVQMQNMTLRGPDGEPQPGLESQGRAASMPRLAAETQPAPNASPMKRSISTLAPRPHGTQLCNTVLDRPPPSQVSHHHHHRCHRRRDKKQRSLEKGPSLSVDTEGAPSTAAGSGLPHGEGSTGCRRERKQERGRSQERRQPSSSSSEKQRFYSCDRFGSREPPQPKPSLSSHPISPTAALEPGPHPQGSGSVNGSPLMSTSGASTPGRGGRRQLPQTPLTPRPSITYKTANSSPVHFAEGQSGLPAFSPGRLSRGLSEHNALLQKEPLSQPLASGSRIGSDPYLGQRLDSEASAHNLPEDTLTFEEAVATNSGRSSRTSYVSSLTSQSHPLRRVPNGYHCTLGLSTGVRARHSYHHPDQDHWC

[2] = biological target: T3, Endothelin receptor type B (Homo sapiens, UniProt P24530)
T3 sequence (P24530 whole entry): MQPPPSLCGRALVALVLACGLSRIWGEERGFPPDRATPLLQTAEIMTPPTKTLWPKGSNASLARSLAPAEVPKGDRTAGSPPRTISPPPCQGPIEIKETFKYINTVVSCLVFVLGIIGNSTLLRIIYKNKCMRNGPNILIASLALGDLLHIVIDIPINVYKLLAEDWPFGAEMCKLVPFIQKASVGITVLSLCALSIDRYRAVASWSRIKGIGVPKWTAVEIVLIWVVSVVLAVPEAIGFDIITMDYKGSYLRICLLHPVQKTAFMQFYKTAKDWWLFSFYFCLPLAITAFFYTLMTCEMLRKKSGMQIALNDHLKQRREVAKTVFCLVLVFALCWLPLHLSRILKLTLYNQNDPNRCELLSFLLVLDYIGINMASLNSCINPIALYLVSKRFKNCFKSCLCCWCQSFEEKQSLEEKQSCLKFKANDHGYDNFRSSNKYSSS

Glucagon receptor = Glucagon receptor (Homo sapiens, UniProt P47871)
Chain of Glucagon receptor (P47871 whole entry): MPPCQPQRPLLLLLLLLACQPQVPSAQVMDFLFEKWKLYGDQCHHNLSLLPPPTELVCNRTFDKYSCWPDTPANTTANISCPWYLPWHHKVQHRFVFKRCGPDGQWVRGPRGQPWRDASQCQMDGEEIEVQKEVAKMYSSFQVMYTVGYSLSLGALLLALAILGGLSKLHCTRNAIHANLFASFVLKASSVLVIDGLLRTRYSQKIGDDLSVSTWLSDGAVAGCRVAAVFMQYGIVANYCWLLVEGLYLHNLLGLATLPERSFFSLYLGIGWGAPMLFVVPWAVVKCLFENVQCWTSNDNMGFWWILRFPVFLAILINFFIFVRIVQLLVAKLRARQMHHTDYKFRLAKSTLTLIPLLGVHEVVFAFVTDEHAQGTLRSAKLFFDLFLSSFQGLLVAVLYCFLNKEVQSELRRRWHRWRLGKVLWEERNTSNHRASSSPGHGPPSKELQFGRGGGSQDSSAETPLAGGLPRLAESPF

Histamine H2 receptor = Histamine H2 receptor (Homo sapiens, UniProt P25021)
Chain of Histamine H2 receptor (P25021 whole entry): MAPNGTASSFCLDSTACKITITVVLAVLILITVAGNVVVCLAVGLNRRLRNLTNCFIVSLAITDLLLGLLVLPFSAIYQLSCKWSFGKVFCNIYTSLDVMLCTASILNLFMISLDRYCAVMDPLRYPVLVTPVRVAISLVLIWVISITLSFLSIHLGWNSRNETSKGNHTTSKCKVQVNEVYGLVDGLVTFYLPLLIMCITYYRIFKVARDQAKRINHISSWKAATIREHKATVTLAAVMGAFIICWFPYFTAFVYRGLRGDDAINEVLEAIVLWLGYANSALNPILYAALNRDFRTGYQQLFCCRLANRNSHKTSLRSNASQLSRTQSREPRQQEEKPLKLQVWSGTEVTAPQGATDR

[3] = biological target: T4, Neuropeptide Y receptor type 2 (Homo sapiens, UniProt P49146)
T4 sequence (P49146 whole entry): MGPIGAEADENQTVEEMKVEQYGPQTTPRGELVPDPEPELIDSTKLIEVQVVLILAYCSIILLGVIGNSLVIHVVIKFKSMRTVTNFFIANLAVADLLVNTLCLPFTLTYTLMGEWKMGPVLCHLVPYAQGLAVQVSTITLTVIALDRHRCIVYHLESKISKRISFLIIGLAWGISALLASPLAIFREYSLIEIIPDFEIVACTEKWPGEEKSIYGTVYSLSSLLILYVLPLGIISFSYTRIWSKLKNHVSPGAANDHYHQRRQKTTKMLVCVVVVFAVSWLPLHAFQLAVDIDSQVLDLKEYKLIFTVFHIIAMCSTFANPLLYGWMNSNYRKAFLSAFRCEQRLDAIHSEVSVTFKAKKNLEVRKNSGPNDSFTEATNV

[4] = biological target: Neurotensin receptor type 1 (Homo sapiens, UniProt P30989)
Chain of Neurotensin receptor type 1 (P30989 whole entry): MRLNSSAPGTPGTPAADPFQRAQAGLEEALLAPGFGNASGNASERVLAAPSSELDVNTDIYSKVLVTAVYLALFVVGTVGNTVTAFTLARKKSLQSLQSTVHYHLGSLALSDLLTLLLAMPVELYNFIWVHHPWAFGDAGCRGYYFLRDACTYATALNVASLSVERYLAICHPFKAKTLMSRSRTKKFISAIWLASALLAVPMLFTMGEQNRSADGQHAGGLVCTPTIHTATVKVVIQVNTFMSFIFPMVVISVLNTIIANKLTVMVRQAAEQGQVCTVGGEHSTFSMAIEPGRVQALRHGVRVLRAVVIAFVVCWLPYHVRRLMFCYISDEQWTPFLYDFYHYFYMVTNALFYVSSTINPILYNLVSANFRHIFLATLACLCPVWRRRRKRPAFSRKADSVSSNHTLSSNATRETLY

[5] = biological target: T5, Alpha-2A adrenergic receptor (Homo sapiens, UniProt P08913)
T5 sequence (P08913 whole entry): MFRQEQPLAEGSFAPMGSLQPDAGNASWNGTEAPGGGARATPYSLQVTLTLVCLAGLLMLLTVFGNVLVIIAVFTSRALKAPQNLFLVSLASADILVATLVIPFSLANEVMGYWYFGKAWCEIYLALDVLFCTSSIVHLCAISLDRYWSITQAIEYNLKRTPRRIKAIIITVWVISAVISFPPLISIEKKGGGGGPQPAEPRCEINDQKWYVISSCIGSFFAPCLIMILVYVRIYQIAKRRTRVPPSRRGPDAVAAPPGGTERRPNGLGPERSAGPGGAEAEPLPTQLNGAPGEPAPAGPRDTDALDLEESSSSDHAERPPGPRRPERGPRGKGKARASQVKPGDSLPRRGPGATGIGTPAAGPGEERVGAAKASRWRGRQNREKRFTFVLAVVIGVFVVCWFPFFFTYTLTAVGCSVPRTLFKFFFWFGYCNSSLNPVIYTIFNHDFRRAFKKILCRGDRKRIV
Also: assay procedure not described here.

- AC50 (Androgen receptor): > 30 µM
- AC50 (B1 bradykinin receptor): > 30 µM
- AC50 [1]: > 10 µM
- AC50 [2]: > 30 µM
- AC50 (Glucagon receptor): > 30 µM
- AC50 (Histamine H2 receptor): > 10 µM
- AC50 [3]: > 30 µM
- AC50 [4]: > 30 µM
- AC50 [5]: > 10 µM
SMILES: CCCCCN(C)CCC(O)(P(=O)(O)O)P(=O)(O)O [IBANDRONIC ACID]
